{"source": "patent US20040209238A1", "about": "“Cell division-visualized cell and method of production of the same, method of detection of fluorescence, method of evaluation of influence upon cell division, and method of screenig” (NAGASE & CO., LTD., priority 2002, published 2004)", "test_system": "human MDA435 cell (transformed with aurora A-GFP, histone H3-CFP, importin α-DsRed)", "assay": "real-time fluorescence observation of cell division in the cell division-visualized cell after addition of an agent", "assay_type": "cell-based", "conditions": "vinblastine added to the culture fluid", "protocol": "As a cell to which the aforementioned plasmid DNA is introduced, human MDA435 cell (Vig et al., 1996; Sugimoto et al., 2000, 2001) was used. The human MDA435 cell was cultured in D-MEM medium containing 10% FCS (manufactured by Nissui Pharmaceutical Co., Ltd.) at 37° C. under 5% carbon dioxide in the air. Cells in the logarithmic growth phase were washed with 4 ml of 1×PBS (−), and the cells were detached by adding 1 ml of trypsin. After terminating the action of trypsin by adding 4 ml of D-MEM medium, the cell suspension was transferred into a centrifuge tube, and a part thereof was removed to subject to the measurement of cell number using a hematometer. The remaining part was centrifuged at 1000 rpm for 10 minutes, and thus recovered cells were washed by suspending in 12 ml of 1×PBS (−). This operation was repeated twice, and the cells were suspended in 1×K-PBS to give the cell density of 1.2×10^7 cells/ml.\nThe transformed cells described above were cultured in a wet chamber with controlled carbon dioxide concentration and temperature by a thermostat and a control timer of carbon dioxide introduction (Japan, manufactured by Kokensya Engineering), using a 35 mm dish (with a cover glass attached on the bottom: manufactured by ASAHI TECHNO GLASS CORPORATION) on the stage of a inverted fluorescence microscope “Eclipse TE300” (manufactured by Nikon) equipped with a objective lens “PlanApo 60×”. Then, a highly sensitive CCD camera ORCA-ER (manufactured by Hamamatsu Photonics K.K.), and an excitation/absorption filter wheel equipped with a filter set for CFP/YFP/RFP for the observation (No. 86006, manufactured by Chroma Technology Corp.) and aZ-axis motor, and a controller “BioPoint MAC5000” (manufactured by Ludl Electronic Products Ltd.) which is a control equipment of the same were used, with the use of a computer software (LuminaVision version 1.40, manufactured by Mitani Co., Ltd.) for controlling these accessories. […]", "note": "“Also recorded” adds a separate entry of the source.", "data": [{"smiles": "CC[C@]1(O)C[C@@H]2CN(CCc3c([nH]c4ccccc34)[C@@](C(=O)OC)(c3cc4c(cc3OC)N(C)[C@H]3[C@@](O)(C(=O)OC)[C@H](OC(C)=O)[C@]5(CC)C=CCN6CC[C@]43[C@@H]65)C2)C1", "note": "[vinblastine]", "values": [{"measurement": "alignment of the chromosomes on the equatorial plane (transition to the metaphase)", "setting": "cyan fluorescence (histone H3), up to 130 minutes following initiation of the observation, FIG. 2 and FIG. 3", "value": "not found even after lapse of 130 minutes; also recorded: not observed even after lapse of 130 minutes"}, {"measurement": "movement of the centrosomes toward the poles and formation of the spindle", "setting": "green fluorescence (aurora A), FIG. 2", "value": "inhibition was made on the movement of the centrosomes toward the poles"}, {"measurement": "progress of cell division, transition from the prophase to the prometaphase", "setting": "observed at intervals of 2 minutes, FIG. 2 and FIG. 3", "value": "inhibition of the transition from the prophase to the prometaphase"}]}]}
